In US8859625B2, “Methods to prepare penta-1,4-dien-3-ones and substituted cyclohexanones and derivatives with antitumoral and antiparasitic properties, the compounds and their uses” (Universidade Bandeirante de Sao Paulo-Academia, Paulista …, priority 2006, dated 2014):
Read-outs that look alike come from different tables or passages of the source.

Experiments:
B16F10 melanoma cells = test: Cytotoxic and antiproliferative effects by the MTT colorimetric method on B16F10 melanoma cells; format: cell-based, murine; conditions: for IC50: Mus musculus
Description: Analysis of Cytotoxic and Antiproliferative Effects of HB-1 Compound and Miglyol 810® as Control by the MTT Colorimetric Method on B16F10 Melanoma Cells.
The colorimetric methodology for the respiratory route of mitochondria MTT (3-(4,5-dimethylthiazol-2-yl)2,5-diphenyl tetrazolium bromide) was used, as described by MOSMANN (1983). This method is based on the reduction of MTT to formazan by living cells. After growth and in vitro confluence of normal and tumoral cells, different concentrations of the HB-1 compound diluted in Miglyol 810® and the diluent-control (Miglyol 810®) have been added on the adhering cells, incubated for 24 hour. After the referred period, 10 μl of MTT (5 mg/mL) were added and incubated for 3 hours in stove with 5% CO2 at 37° C. After this period, the content of the culture plates were centrifuged for 2 minutes at 1800 rpm, at 4° C., the supernatant was removed and 100 μL of dimethyl sulfoxide (DMSO) were added to dissolve formazan crystals previously constituted and precipitated. The absorbances were obtained by an ELISA reader at 540 nm (TiterTek Multiskan) wavelength, with the results obtained shown in FIG. 12.
IC50 Evaluation for B16F10 Melanoma Cells, Obtained from the Linear Equation.

[1] = Acute and subchronic toxicology in Balb-c mice by the endovenous route; format: in vivo
Procedure: Acute and Subchronic Toxicology of DM-1 in Balb-c Mice by the Endovenous Route.
Balb-c mice were weighted and housed in the biotery, subdivided into groups of 05 animals per cage and, after two weeks, received the DM-1 compound in different concentrations by the endovenous route. The compound was administered in a 0.2 mL volume using microseringe, for all concentrations, through the retro-orbital venous plexus.

T lymphocytes = test: Cytotoxic and proliferative activity on T lymphocytes (MTT, compared to PHA); format: cell-based, C57BL/6J mice
Procedure: Preparation of T Lymphocytes
Groups composed by 5 C57BL/6J mice of 2 months of age were sacrificed by cervical displacement and its lymph nodes chain from axillary, popliteal, and mesenteric regions were removed under sterile conditions. Lymph nodes were maintained in RPMI-1640 culture medium supplemented with 10% inactivated bovine fetal serum at 56° C. in the presence of antibiotics, and debridement was performed with the assistance of a bistury. The resulting cell suspension was filtered through 30 μm dialysis membrane and centrifuged for 10 minutes at 1800 rpm at 4° C. Cell pellet was resuspended in 5 mL RPMI complete medium and, after that, incubated in Petri dishes containing 10 mL bovine fetal serum for 1 hour in stove, at 37° C. and 5% CO2. […] Cell concentration was adjusted in Mallassez chamber to a 5×10^5 cells/mL concentration and cell viability was determined by the exclusion method with Trypan blue.
Cytotoxic and proliferative activities were determined in a 96 well plate and compared to mitogenic activity of phytohemagglutinin (PHA) and evaluated by the MTT calorimetric method. The obtained values were expressed as percentage.
The data of each experiment were statistically analysed by the ANOVA variance test with de p<0.05 significance.

[2] = cited from earlier work
[3] = tested on: human fibroblasts of normal skin; test: MTT cytotoxic and antiproliferative effects on human fibroblasts of normal skin; format: cell-based; conditions: diluted in Miglyol 810, 24 hours
Procedure: Analysis of Cytotoxic Effects by the MTT Method and Antiproliferative Effects for HB-2 Compound Diluted in Miglyol 810® and Miglyol 810® Control on Human Fibroblasts of Normal Skin.
Skin fragments were asseptically collected during surgical procedures for tissue remotion in aesthetic surgery and immediately transferred to 50 mL sterile vials containing HAM F-12 (Gibco) culture medium supplemented with 20% of bovine fetal serum. Fragments were chopped, cleaned, and the smaller fragments were cultivated in Petri dishes in a Ham-F12 culture medium supplemented with 10% bovine fetal serum, and kept in humidified stoven at 37° C. and 5% C02.
When attained subconfluence, the cells were trypsinized for 5 minutes, inactivated with 10% bovine fetal serum, centrifuged for 10 minutes at 2000 rpm at 4° C., transferred to 96 well flat bottom plates, and cultivated for 24 hours in a CO2 5% stoven. Fibroblasts were treated for 24 hours with different concentrations of HB-2 compound diluted in Miglyol 810® and the control group received the same volumes of Miglyol alone; cytotoxic and antiproliferative effects were evaluated by the MTT colorimetric method.

B16F10 melanoma = B16F10 melanoma tumors implanted in C57BL/6J mice, intraperitoneal treatment; tumor area and volume; format: in vivo; conditions: diluted in Miglyol 810, intraperitoneal 100 μl daily, 14 days
Procedure: After the Day 4 of tumor cells implant (2×10^5 tumoral cells/mL), the animals were splitted in two groups: the test group, treated with HB-1 compound diluted in Miglyol 810® and the control group, which received only the diluent (Miglyol 810®) in the same volume as the test group. The animals were daily treated by intraperitoneal route. Concomitantly, measurements of animal weight and tumor size (two measures—length×width) were performed and tumor aspect registered by photographies.
After the Day 14, the animals were sacrificed by cervical displacement, tumors were removed, and necropsy performed to remove all internal organs and macroscopic lesions for hystopathologic analysis.
Tumoral parameters were obtained by calculation of tumor average area (A) and volume (V), through the following formulas A=πR^2 and V=4/3πR^3, where (R=average tumor radius). […]
After tumoral cell implant, the animals were treated with the HB-2 compound diluted in Miglyol 810® and with (HB2+HB-1) conjugate whereas the control group received the same volume of diluent and by the same administration route (intraperitoneal—100 μl). Daily, the animals received the compounds (100 μl) and the control group received Miglyol 810®, the animals were weighted, and the tumors were measured (length×width) and photographed. […]

Which “increase in cytotoxic effects (in vitro efficacy)” value (B16F10 melanoma cells; monosodium composition relative to HB-1) does the source give for COc1cc(/C=C/C(=O)/C=C/c2ccc(O)c(OC)c2)ccc1[O-].[Na+] [DM-1, sodium 4-[5-(4-hydroxy-3-methoxy-phenyl)-3-oxo-penta-1,4-dienyl]-2-methoxy-phenolate] here?
The value was 7.0 fold.

And the “LD50 compared to doxorubicin, fold smaller” value ([1]; Balb-c, mouse, in vivo, 24 h)?
The value was 35 fold.

And the “50% lethal dose (DL50)” value ([1]; endovenous route)?
The value was 14 mg/kg.

What about the maximum tolerable dose ([1]; endovenous route) of the same molecule?
The maximum tolerable dose was 14 mg/kg.

And the “behavioral alteration after the administration” value ([1]; endovenous, 0.2 mL via retro-orbital venous plexus)?
The value was “no behavioral alteration was observed”.

What about the “macroscopic and hystopathologic alterations of the internal organs” value ([1]; necropsy at Day 30) of the same molecule?
Its value is “no significant macroscopic and hystopathologic alterations”.

What about the “acute respiratory and cardiac toxicity” value ([1]; preclinic tests) of the same molecule?
The value was “has not present any suggestive effect of acute respiratory and cardiac toxicity”.

For COc1cc(/C=C/C(=O)/C=C/c2ccc([O-])c(OC)c2)ccc1[O-].[Na+].[Na+] [DM-2, disodium 3-oxo-penta-1,4-dienyl-bis(2-methoxy-phenolate)], which “in vitro efficacy in relation to the monosodium DM-1 compound, fold smaller” value (B16F10 melanoma cells) is on record?
Its value is “around 6.0 fold”.

And the IC50 (B16F10 melanoma cells; B16-F10, read-out: DOSE, footnote: obtained by preclinic experimental models)?
The IC50 was 1.9 µg/mL.

And the IC50 (B16F10 melanoma cells; B16-F10, sodium salts, B16F10 murine melanoma, MTT, read-out: IC50)?
Its IC50 is 7.95 µg/mL.

And the “toxic activity on normal cells” value (T lymphocytes; T lymphocytes)?
Its value is “no toxic activity on normal cells”.

And the “proliferative activity of T lymphocytes” value (T lymphocytes; different concentrations, compared to PHA 2.5 and 5.0 μg)?
Its value is “induced no proliferative activity”.

What about the “LETAL DOSE 50%” value ([1]; comparison table, own compound) of the same molecule?
The value was 700 mg/kg.

Which results are given for COc1cccc2c1C(=O)c1c(O)c3c(c(O)c1C2=O)C[C@@](O)(C(=O)CO)C[C@@H]3O[C@H]1C[C@H](N)[C@H](O)[C@H](C)O1 [Doxorubicin]?
50% LETHAL DOSE ([2]; background table): 20 mg/kg; LETAL DOSE 50% ([2]; comparison table, drugs of the therapeutics): 20 mg/kg

With COc1cc(C=CC(=O)C=Cc2ccc(OC(C)=O)c(OC)c2)ccc1OC(C)=O [HB-2, 4-[5-(4-acetoxy-3-methoxy-phenyl)-3-oxo-penta-1,4-dienyl]-2-methoxy-phenylacetate] as the molecule, how does the “cytotoxic effect in normal human fibroblasts” value [3] read?
Its value is “no cytotoxic effect was observed”.

And the “reduction of tumoral burden (tumor area and volume)” value (B16F10 melanoma)?
The value was 60%.
